From publication PMC4769088, “Antifungal Activity and Action Mechanism of Histatin 5-Halocidin Hybrid Peptides against Candida ssp” (PLoS ONE, 2016)
Where a SMILES comes first, the peptide text is derived from it. Bridges are numbered along the chain shown (N, C = ends). Roman numbers before positions name the chains, in order. Where no end group is shown, it is not given here.

Tested on: C. albicans strains
Assay: Broth dilution assay (MIC), C. albicans strains
Assay type: cell-based, Candida albicans
Details: for killing activities against C. albicans strains in 150 mM salt: 150 mM NaCl; for decrease of killing activities in 150 mM salt: 150 mM NaCl versus no salt, C. albicans strains
Description: To determine the candidacidal activity of the peptides, we used Candida strains obtained from the Culture collection of antimicrobial resistant microbes at Seoul Women’s University in Korea. These included three Candida albicans (CCARM 14020, 14021, 14022), Candida guillermondi and Candida tropicalis. In addition, Candida albicans SC5413 was kindly provided by Dr Jeong-Yoon Kim at the Department of Microbiology & Molecular Biology, Chungnam University, Korea. Yeast were cultured overnight at 30°C in 10 ml of yeast extract-peptone-dextrose (YPD) broth (Qbiogene), then diluted in 10 ml of YPD broth to OD600 = 0.2 and grown for an additional 4 h with shaking at 30°C until OD600 = 0.8 in order to obtain mid-log phase cultures. The peptides (Hst 5, P113, HHP1, HHP2, PH1, PH2, di-PH1, di-PH2, WP1, di-WP2, di-15Hc and di-18Hc) in this study were synthesized by using standard solid-phase synthesis protocols and were purified by reversed-phase high-performance liquid chromatography at Anygen Inc. (Korea). FITC-labeled peptides (F-Hst5, F-P113, F-HHP1, F-di-PH2, F-di-WP2 and F-di-18Hc) were also synthesized by 6-aminohexnoic acid linker at Anygen (Korea) for confocal experiments.
The candidacidal activities of the peptides were tested by using standard microdilution plate assays, radial diffusion assays and broth dilution assay slightly modified from the procedure recommended by the National Committee for Clinical Laboratory Standards. For the candidacidal assays, C. albicans cells were grown in YPD medium and washed twice with 10 mM sodium phosphate buffer (NaPB; Na2HPO4, NaH2PO4, pH 7.4). The cells (1 x 10^6) were then mixed with different concentrations of peptides and incubated at 30°C with constant shaking for 60 min. For energy depletion experiments, cells were pre-incubated with 10 mM NaPB containing 5 mM NaN3 at 30°C for 60 min before the addition of peptides. The cell suspensions were diluted in 10 mM NaPB and aliquots of 500 cells were spread onto YPD agar plates then incubated for 24 h at 30°C to visualize the surviving colonies. Cell survival was expressed as a percentage of that for the control, and the loss of viability was calculated as [1 x (number of colonies from peptide-treated cells/number of colonies from control cells)] x 100. Candidacidal assays were performed in triplicate. For the radial diffusion assay, C. albicans cells were grown in YPD medium overnight and washed twice with 10 mM NaPB. Washed yeast-phase C. albicans cells (1 x 10^6 CFU) were trapped in thin underlay gels containing 9 mM sodium phosphate, 1 mM sodium citrate buffer, 1% (wt/vol) agarose (A6013; Sigma), and 0.3 mg of Sabouraud dextrose broth (Difco)/ml. After incubation at 37°C for 3 h, a 10 ml overlay gel of 1% agarose and 6% Sabouraud dextrose broth was poured on the underlay gel and then the plates were incubated overnight at 37°C. The clear-zone diameters were measured to the nearest 0.1 mm and graphed against the peptide concentration. Zone diameters were expressed in units (0.1 mm = 1 unit). For the broth dilution assay, the Candida strains were cultured in LYM broth for 18 h at 30°C. The numbers of yeasts were counted using a hemocytometer. Stock peptide solutions were prepared to a concentration of 320 μg/ml in distilled water, and were then serially diluted twofold, to 5 μg/ml. […] The antifungal activities were evaluated after 24 h of incubation at 30°C by the observation of visible turbidity the wells. […]

Compound | killing activities against C. albicans strains in 150 mM salt | decrease of killing activities in 150 mM salt
AKRHHGYKRKFH-NH2 [P113] | abolished | –
CC(C)C[C@H](NC(=O)[C@@H](N)Cc1c[nH]c2ccccc12)C(=O)N[C@@H](CC(N)=O)C(=O)N[C@@H](C)C(=O)N[C@@H](CCCCN)C(=O)N[C@@H](CCCNC(=N)N)C(=O)N[C@@H](Cc1c[nH]cn1)C(=O)N[C@@H](Cc1c[nH]cn1)C(=O)NCC(=O)N[C@@H](Cc1ccc(O)cc1)C(=O)N[C@@H](CCCCN)C(=O)N[C@@H](CSSC[C@H](NC(=O)[C@H](CCCCN)NC(=O)[C@H](Cc1ccc(O)cc1)NC(=O)CNC(=O)[C@H](Cc1c[nH]cn1)NC(=O)[C@H](Cc1c[nH]cn1)NC(=O)[C@H](CCCNC(=N)N)NC(=O)[C@H](CCCCN)NC(=O)[C@H](C)NC(=O)[C@H](CC(N)=O)NC(=O)[C@H](CC(C)C)NC(=O)[C@@H](N)Cc1c[nH]c2ccccc12)C(=O)N[C@@H](CCCCN)C(=O)N[C@@H](Cc1ccccc1)C(=O)N[C@@H](Cc1c[nH]cn1)C(N)=O)C(=O)N[C@@H](CCCCN)C(=O)N[C@@H](Cc1ccccc1)C(=O)N[C@@H](Cc1c[nH]cn1)C(N)=O [di-WP2] (I: H-WLNAKRHHGYKCKFH-NH2 / II: H-WLNAKRHHGYKCKFH-NH2; disulfide I:12-II:12 (inferred); N-terminus assumed) | – | 4-8 fold
CC(C)C[C@H](NC(=O)CNC(=O)[C@H](Cc1c[nH]cn1)NC(=O)[C@H](Cc1c[nH]cn1)NC(=O)[C@H](CC(C)C)NC(=O)[C@H](CC(C)C)NC(=O)[C@H](C)NC(=O)[C@H](CC(N)=O)NC(=O)[C@H](CC(C)C)NC(=O)[C@@H](N)Cc1c[nH]c2ccccc12)C(=O)N[C@@H](CC(N)=O)C(=O)N[C@@H](CSSC[C@H](NC(=O)[C@H](CC(N)=O)NC(=O)[C@H](CC(C)C)NC(=O)CNC(=O)[C@H](Cc1c[nH]cn1)NC(=O)[C@H](Cc1c[nH]cn1)NC(=O)[C@H](CC(C)C)NC(=O)[C@H](CC(C)C)NC(=O)[C@H](C)NC(=O)[C@H](CC(N)=O)NC(=O)[C@H](CC(C)C)NC(=O)[C@@H](N)Cc1c[nH]c2ccccc12)C(=O)N[C@@H](C)C(=O)N[C@@H](CCCCN)C(=O)NCC(=O)N[C@H](C(=O)N[C@@H](CC(C)C)C(=O)N[C@@H](C)C(N)=O)C(C)C)C(=O)N[C@@H](C)C(=O)N[C@@H](CCCCN)C(=O)NCC(=O)N[C@H](C(=O)N[C@@H](CC(C)C)C(=O)N[C@@H](C)C(N)=O)C(C)C [di-18Hc, reference compound] (I: H-WLNALLHHGLNCAKGVLA-NH2 / II: H-WLNALLHHGLNCAKGVLA-NH2; disulfide I:12-II:12 (inferred); N-terminus assumed) | – | 4-8 fold
C[C@H](NC(=O)[C@H](Cc1c[nH]cn1)NC(=O)[C@H](CO)NC(=O)[C@@H](N)CC(=O)O)C(=O)N[C@@H](CCCCN)C(=O)N[C@@H](CCCNC(=N)N)C(=O)N[C@@H](Cc1c[nH]cn1)C(=O)N[C@@H](Cc1c[nH]cn1)C(=O)NCC(=O)N[C@@H](Cc1ccc(O)cc1)C(=O)N[C@@H](CCCCN)C(=O)N[C@@H](CCCNC(=N)N)C(=O)N[C@@H](CCCCN)C(=O)N[C@@H](Cc1ccccc1)C(=O)N[C@@H](Cc1c[nH]cn1)C(=O)N[C@@H](CCC(=O)O)C(=O)N[C@@H](CCCCN)C(=O)N[C@@H](Cc1c[nH]cn1)C(=O)N[C@@H](Cc1c[nH]cn1)C(=O)N[C@@H](CO)C(=O)N[C@@H](Cc1c[nH]cn1)C(=O)N[C@@H](CCCNC(=N)N)C(=O)NCC(=O)N[C@@H](Cc1ccc(O)cc1)C(=O)O [Hst 5, Histatin 5] | abolished | –
CC(C)C[C@H](NC(=O)CNC(=O)[C@H](Cc1c[nH]cn1)NC(=O)[C@H](Cc1c[nH]cn1)NC(=O)[C@H](CCCNC(=N)N)NC(=O)[C@H](CCCCN)NC(=O)[C@H](C)N)C(=O)N[C@@H](CC(N)=O)C(=O)N[C@@H](CSSC[C@H](NC(=O)[C@H](CC(N)=O)NC(=O)[C@H](CC(C)C)NC(=O)CNC(=O)[C@H](Cc1c[nH]cn1)NC(=O)[C@H](Cc1c[nH]cn1)NC(=O)[C@H](CCCNC(=N)N)NC(=O)[C@H](CCCCN)NC(=O)[C@H](C)N)C(=O)N[C@@H](C)C(=O)N[C@@H](CCCCN)C(=O)N[C@@H](Cc1ccccc1)C(=O)N[C@@H](Cc1c[nH]cn1)C(N)=O)C(=O)N[C@@H](C)C(=O)N[C@@H](CCCCN)C(=O)N[C@@H](Cc1ccccc1)C(=O)N[C@@H](Cc1c[nH]cn1)C(N)=O [di-PH2] (I: H-AKRHHGLNCAKFH-NH2 / II: H-AKRHHGLNCAKFH-NH2; disulfide I:9-II:9 (inferred); N-terminus assumed) | abolished | –
